Patent publication US7781592B2, “Thione derivative, method for the preparation thereof, and pharmaceutical composition containing the same” (CJ Cheiljedang Corporation, priority 2003, dated 2010)

Key:
COX-1 = target: T1, COX-1 (Homo sapiens, UniProt P23219); assay: Assay for the COX-1 inhibitory activity using U-937 (PGE2 inhibition); format: cell-based; conditions: test compound 1 μM, U-937 human lymphoma cells, arachidonic acid substrate, PGE2 quantified; for inhibition at 1 µM: read-out: Cyclooxygenase (COX) Inhibition (%) COX-1 (1 μM)
T1 construct: host or cells: U-937 human lymphoma cells
Protocol: The collected cells were diluted with HBSS (×1, Hank's balanced salt solution) to a concentration of 1×10^6 cells/ml. 1 ml of the dilute cell solution was placed into each well of 12-well plates. 5 μl of 1 μM solution of a test compound in DMSO and 5 μl of DMSO as a control were added to the wells. The wells were incubated in CO2 incubator at 37° C. for 15 minutes. Separately, 10 mM stock solution of arachidonic acid in ethanol was diluted ten times in ethanol to prepare 1 mM solution of arachidonic acid. Arachidonic acid acts as a substrate. 10 μl of the 1 mM solution of arachidonic acid was added to each well and incubated at CO2 incubator at 37° C. for 30 minutes. The cell solution of each well was placed in a centrifuge test tube and centrifuged at 10,000 rpm at 4° C. for 5 minutes. The concentration of PGE2 in the collected cells and the supernatant was quantified by means of a monoclonal kit (Cayman Chemicals). The percentages of PGE2 inhibition in a group of the test compound-treated cells in relation to a group of the DMSO-treated cells were calculated. Based on the calculated values, the COX-1 inhibitory activities were evaluated.
(§1) The percentages of the COX inhibition were calculated according to the following equation: % Inhibition=(concentration of PGE2 in test compound-untreated sample−concentration of PGE2 in test compound-treated sample)/(concentration of PGE2 in test compound-untreated sample)×100

COX-2 = target: T2, COX-2 (Mus musculus, UniProt Q05769); assay: Assay for the COX-2 inhibitory activity using Raw 264.7 cell line (PGE2 inhibition); format: cell-based; conditions: test compound 30 nM, RAW 264.7 cells, aspirin pre-treated, interferon + LPS 18 hours, PGE2 by EIA; for inhibition at 0.03 µM: RAW264.7, read-out: Cyclooxygenase (COX) Inhibition (%) COX-2 (30 nM)
T2 construct: host or cells: RAW 264.7 cells, pre-treated with aspirin, then induced with interferon and LPS
T2 sequence (Q05769 18-604): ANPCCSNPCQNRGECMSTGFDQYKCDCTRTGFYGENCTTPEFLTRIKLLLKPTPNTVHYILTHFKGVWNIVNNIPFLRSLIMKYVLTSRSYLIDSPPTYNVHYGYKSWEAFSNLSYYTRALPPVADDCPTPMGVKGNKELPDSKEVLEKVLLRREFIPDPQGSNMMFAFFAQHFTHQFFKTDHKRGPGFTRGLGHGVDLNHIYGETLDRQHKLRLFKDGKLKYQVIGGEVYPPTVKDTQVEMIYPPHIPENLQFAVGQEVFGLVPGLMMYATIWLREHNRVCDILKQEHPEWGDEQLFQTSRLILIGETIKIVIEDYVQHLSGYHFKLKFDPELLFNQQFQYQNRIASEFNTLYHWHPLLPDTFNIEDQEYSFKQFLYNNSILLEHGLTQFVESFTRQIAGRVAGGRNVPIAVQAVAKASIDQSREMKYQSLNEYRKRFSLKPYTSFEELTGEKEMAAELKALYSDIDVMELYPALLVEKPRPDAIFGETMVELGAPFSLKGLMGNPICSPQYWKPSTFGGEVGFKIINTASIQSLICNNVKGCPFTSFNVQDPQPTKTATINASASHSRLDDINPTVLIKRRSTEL
Protocol: Each well was treated with 250 μM of aspirin and incubated at 37° C. for 2 hours. After the culture media were replaced with new culture media, the new culture media were treated with a test compound (30 nM) and incubated for 30 minutes. Then, each well was treated with interferon ? (100 units/ml) and lipopolysaccharide (LPS, 100 ng/ml) and incubated for 18 hours. The culture media were transferred to other test tubes. The concentration of PGE2 was quantified by means of the EIA kit (Cayman Chemicals).
as §1

T1 sequence (P23219 24-599): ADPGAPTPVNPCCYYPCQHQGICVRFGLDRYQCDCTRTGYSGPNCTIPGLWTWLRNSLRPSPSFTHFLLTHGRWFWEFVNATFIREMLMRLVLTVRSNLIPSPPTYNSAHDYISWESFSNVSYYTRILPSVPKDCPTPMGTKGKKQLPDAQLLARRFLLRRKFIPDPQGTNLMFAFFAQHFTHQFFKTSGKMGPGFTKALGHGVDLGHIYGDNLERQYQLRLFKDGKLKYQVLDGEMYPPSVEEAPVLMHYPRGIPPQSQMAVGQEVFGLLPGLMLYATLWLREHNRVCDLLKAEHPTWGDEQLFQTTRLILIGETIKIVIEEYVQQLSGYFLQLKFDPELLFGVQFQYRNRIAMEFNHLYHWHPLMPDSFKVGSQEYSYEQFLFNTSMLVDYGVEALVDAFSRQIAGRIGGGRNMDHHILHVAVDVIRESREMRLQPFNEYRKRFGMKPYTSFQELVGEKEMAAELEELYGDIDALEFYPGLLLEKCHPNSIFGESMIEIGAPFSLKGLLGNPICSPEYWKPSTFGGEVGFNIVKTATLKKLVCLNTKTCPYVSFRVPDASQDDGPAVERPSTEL

| inhibition at 1 µM (COX-1) | inhibition at 0.03 µM (COX-2) | melting point | Cyclooxygenase (COX) Inhibition (%) COX-1 (1 μM) (COX-1) | Cyclooxygenase (COX) Inhibition (%) COX-2 (30 nM) (COX-2) | Structure (SMILES) |
| --- | --- | --- | --- | --- | --- |
| 15% | 36.6% | 210 to 212 °C |  |  | CCOc1ccc(-c2c(-c3ccc(S(C)(=O)=O)cc3)ssc2=S)cc1 [Example 39, 4-(4-ethoxyphenyl)-5-(4-methanesulfonylphenyl)-[1,2]dithiol-3-thione] |
| 18.3% | 35.7% | 238 to 240 °C |  |  | CS(=O)(=O)c1ccc(-c2ssc(=S)c2-c2ccc(Br)cc2)cc1 [Example 40, 4-(4-bromophenyl)-5-(4-methanesulfonylphenyl)-[1,2]dithiol-3-thione] |
| 24.5% | 20.1% | 200 to 202 °C |  |  | CS(=O)(=O)c1ccc(-c2ssc(=S)c2-c2ccccc2)cc1 [Example 42, 5-(4-methanesulfonylphenyl)-4-phenyl-[1,2]dithiol-3-thione] |
| 19.3% | 38.4% | 220 to 222 °C |  |  | COc1ccc(-c2c(-c3ccc(S(C)(=O)=O)cc3)ssc2=S)cc1 [Example 43, 5-(4-methanesulfonylphenyl)-4-(4-methoxyphenyl)-[1,2]dithiol-3-thione] |
| 25.5% | 20.1% | 240 to 242 °C |  |  | CS(=O)(=O)c1ccc(-c2ssc(=S)c2-c2ccccc2C(F)(F)F)cc1 [Example 44, 5-(4-methanesulfonylphenyl)-4-(2-trifluoromethylphenyl)-[1,2]dithiol-3-thione] |
| 19.6% | 22.1% | 233 to 235 °C |  |  | CS(=O)(=O)c1ccc(-c2ssc(=S)c2-c2ccc(Cl)cc2)cc1 [Example 45, 4-(4-chlorophenyl)-5-(4-methanesulfonylphenyl)-[1,2]dithiol-3-thione] |
| 24.6% | 21% |  |  |  | CS(=O)(=O)c1ccc(-c2ssc(=S)c2-c2ccc(Cl)c(Cl)c2)cc1 [Example 46, 4-(3,4-dichlorophenyl)-5-(4-methanesulfonylphenyl)-[1,2]dithiol-3-thione] |
| 22.5% | 21.4% | 245 to 247 °C |  |  | CS(=O)(=O)c1ccc(-c2ssc(=S)c2-c2ccncc2)cc1 [Example 47, 5-(4-methanesulfonylphenyl)-4-(pyridine-4-yl)-[1,2]dithiol-3-thione] |
| 23.6% | 24.2% |  |  |  | CS(=O)(=O)c1ccc(-c2ssc(=S)c2-c2cccnc2)cc1 [Example 48, 5-(4-methanesulfonylphenyl)-4-(pyridine-3-yl)-[1,2]dithiol-3-thione] |
| 28% | 19.5% |  |  |  | CS(=O)(=O)c1ccc(-c2ssc(=S)c2-c2ccccn2)cc1 [Example 49, 5-(4-methanesulfonylphenyl)-4-(pyridine-2-yl)-[1,2]dithiol-3-thione] |
| 27.2% | 19.6% | 195 to 197 °C |  |  | CS(=O)(=O)c1ccc(-c2ssc(=S)c2-c2ccc(F)cc2)cc1 [Example 50, 4-(4-fluorophenyl)-5-(4-methanesulfonylphenyl)-[1,2]dithiol-3-thione] |
| 27.6% | 19.8% | 176 to 177 °C |  |  | COc1ccc(OC)c(-c2c(-c3ccc(S(C)(=O)=O)cc3)ssc2=S)c1 [Example 51, 4-(2,5-dimethoxyphenyl)-5-(4-methanesulfonylphenyl)-[1,2]dithiol-3-thione] |
| 26.6% | 19.1% | 164 to 165 °C |  |  | Cc1cc(C)cc(-c2c(-c3ccc(S(C)(=O)=O)cc3)ssc2=S)c1 [Example 52, 4-(3,5-dimethylphenyl)-5-(4-methanesulfonylphenyl)-[1,2]dithiol-3-thione] |
| 26.7% | 21.6% | 212 to 213 °C |  |  | COc1cccc(-c2c(-c3ccc(S(C)(=O)=O)cc3)ssc2=S)c1 [Example 53, 5-(4-methanesulfonylphenyl)-4-(3-methoxyphenyl)-[1,2]dithiol-3-thione] |
| 22.4% | 26.3% | 170 to 171 °C |  |  | CS(=O)(=O)c1ccc(-c2ssc(=S)c2-c2ccccc2[N+](=O)[O-])cc1 [Example 54, 5-(4-methanesulfonylphenyl)-4-(2-nitrophenyl)-[1,2]dithiol-3-thione] |
| 27.6% | 20.2% | 188 to 189 °C |  |  | CS(=O)(=O)c1ccc(-c2ssc(=S)c2-c2cccc(C(F)(F)F)c2)cc1 [Example 55, 5-(4-methanesulfonylphenyl)-4-(3-trifluoromethylphenyl)-[1,2]dithiol-3-thione] |
|  |  |  | 20.6% | 25.6% | Cc1ccccc1-c1c(-c2ccc(S(C)(=O)=O)cc2)ssc1=S [Example 56, 5-(4-methanesulfonylphenyl)-4-o-toryl-[1,2]dithiol-3-thione] |
| 20.7% | 21.1% | 161 to 162 °C |  |  | CS(=O)(=O)c1ccc(-c2ssc(=S)c2-c2ccccc2Cl)cc1 [Example 57, 4-(2-chlorophenyl)-5-(4-methanesulfonylphenyl)-[1,2]dithiol-3-thione] |
| 24.2% | 20.1% | 176 to 177 °C |  |  | CS(=O)(=O)c1ccc(-c2ssc(=S)c2-c2ccc(Cl)cc2Cl)cc1 [Example 58, 4-(2,4-dichlorophenyl)-5-(4-methanesulfonylphenyl)-[1,2]dithiol-3-thione] |
| 22.6% | 20.1% |  |  |  | CS(=O)(=O)c1ccc(-c2ssc(=S)c2-c2ccc3ccccc3c2)cc1 [Example 65, 5-(4-methanesulfonylphenyl)-4-(naphthalene-2-yl)-[1,2]dithiol-3-thione] |
|  |  |  | 28.2% | 19.2% | CS(=O)(=O)c1ccc(-c2ssc(=S)c2-c2c(F)c(F)c(F)c(F)c2F)cc1 [Example 66, 5-(4-methanesulfonylphenyl)-4-pentafluorophenyl-[1,2]dithiol-3-thione] |
|  |  |  | 20.3% | 21.0% | Cc1ccc(-c2c(-c3ccc(S(C)(=O)=O)cc3Cl)ssc2=S)cc1 [Example 71, 5-(2-chloro-4-methanesulfonylphenyl)-4-p-toryl-[1,2]dithiol-3-thione] |
|  |  |  | 15.2% | 31.5% | Cc1ccc(-c2c(-c3ccc(S(C)(=O)=O)c(F)c3)ssc2=S)cc1 [Example 77, 5-(3-fluoro-4-methanesulfonylphenyl)-4-p-toryl-[1,2]dithiol-3-thione] |
| 18.5% | 32.5% |  |  |  | COc1ccc(-c2c(-c3ccc(S(C)(=O)=O)c(F)c3)ssc2=S)cc1 [Example 78, 5-(3-fluoro-4-methanesulfonylphenyl)-4-(4-methoxyphenyl)-[1,2]dithiol-3-thione] |
|  |  |  | 25.6% | 23.2% | Cc1ccc(-c2c(-c3ccc(S(C)(=O)=O)cc3)[nH][nH]c2=S)cc1 [Example 80, 5-(4-methanesulfonylphenyl)-4-p-toryl-[1,2]dihydropyrazole-3-thione] |

| Structure (SMILES) | inhibition at 1 µM (COX-1) | inhibition at 0.03 µM (COX-2) | melting point | Cyclooxygenase (COX) Inhibition (%) COX-1 (1 μM) (COX-1) | Cyclooxygenase (COX) Inhibition (%) COX-2 (30 nM) (COX-2) |
| --- | --- | --- | --- | --- | --- |
| Cc1ccc(-c2c(-c3ccc(S(C)(=O)=O)cc3)ssc2=S)cc1 [Example 41, 5-(4-methanesulfonylphenyl)-4-p-toryl-[1,2]dithiol-3-thione] |  |  |  | 20.1% | 24.5% |
